Measured values taken from ChEMBL document CHEMBL1201862, “PubChem BioAssay data set” (2004).
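All cell lines were grown in 96-well plates and treated with compound for 48 hours. Abbreviation: GI50, concentration required for 50% inhibition of growth.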 Active and inactive are the calls of the source. Cut-off read from the data, not from the text of the source: active = GI50 up to about 1.1 µM and inactive = higher.

Experiments:
Assay in all cases: growth of human tumour cells (NCI), 48 h
RXF 393 = test system: RXF 393
SR = test system: SR
DU-145 = test system: DU-145
SW-620 = test system: SW-620
HOP-62 = test system: HOP-62
M14 = test system: M14
OVCAR-5 = test system: OVCAR-5
COLO 205 = test system: COLO 205
KM12 = test system: KM12
HL-60 = test system: HL-60
CAKI-1 = test system: CAKI-1
OVCAR-8 = test system: OVCAR-8
RPMI-8226 = test system: RPMI-8226
U-251 = test system: U-251
HT-29 = test system: HT-29
NCI/ADR-RES = test system: NCI/ADR-RES
MDA-MB-231 = test system: MDA-MB-231
LOX IMVI = test system: LOX IMVI
OVCAR-3 = test system: OVCAR-3

SMILES	GI50 (RXF 393)	GI50 (SR)	GI50 (DU-145)	GI50 (SW-620)	GI50 (HOP-62)	GI50 (M14)	GI50 (OVCAR-5)	GI50 (COLO 205)	GI50 (KM12)	GI50 (HL-60)	GI50 (CAKI-1)	GI50 (OVCAR-8)	GI50 (RPMI-8226)	GI50 (U-251)	GI50 (HT-29)	GI50 (NCI/ADR-RES)	GI50 (MDA-MB-231)	GI50 (LOX IMVI)	GI50 (OVCAR-3)
Cc1cccc2c1CC1(C2)Cc2c(C)cccc2C1=O (stereo not drawn)	15.6 µM (inactive)	11.2 µM (inactive)	18.8 µM (inactive)	29.9 µM (inactive)	23.6 µM (inactive)	26.6 µM (inactive)	28.7 µM (inactive)	15.6 µM (inactive)	25.2 µM (inactive)	26.7 µM (inactive)	10.3 µM (inactive)	42.9 µM (inactive)	14.8 µM (inactive)	23.8 µM (inactive)	29.9 µM (inactive)	38.1 µM (inactive)	23.6 µM (inactive)	17.5 µM (inactive)	23.9 µM (inactive)
C1C2CC3CC1CC(Nc1nc(NC45CC6CC(CC(C6)C4)C5)nc(NC45CC6CC(CC(C6)C4)C5)n1)(C2)C3	39 µM (inactive)	51.2 µM (inactive)	42 µM (inactive)	79.4 µM (inactive)	> 36.5 µM (inactive)	44 µM (inactive)	> 92.3 µM (inactive)	28.7 µM (inactive)	22.1 µM (inactive)	39.3 µM (inactive)	> 100 µM (inactive)	> 26 µM (inactive)	24.5 µM (inactive)	43.8 µM (inactive)	> 100 µM (inactive)	9.31 µM (inactive)	> 100 µM (inactive)	11.1 µM (inactive)	> 23.6 µM (inactive)
COc1ccc(/N=N/C(=O)NC(CC(C)C)C(=O)NCC(=O)O)cc1 (stereo not drawn)	> 100 µM (inactive)	19.5 µM (inactive)	12.2 µM (inactive)	12.8 µM (inactive)	41.6 µM (inactive)	2.94 µM (inactive)	13.5 µM (inactive)	4.47 µM (inactive)	3.76 µM (inactive)	5.9 µM (inactive)	> 100 µM (inactive)	21.3 µM (inactive)	11.7 µM (inactive)	> 100 µM (inactive)	14.8 µM (inactive)	19.5 µM (inactive)	> 58.2 µM (inactive)	1.37 µM (inactive)	19.8 µM (inactive)
CC[C@@H]1/C=C/C=C/C[C@H](C)[C@@H](O)[C@](C)(O)C(=O)[C@H](C)[C@@H](O)[C@H](C)C(=O)[C@H](C)[C@@H](O)[C@H](C)/C=C/C(=O)O[C@H]2[C@@H](C)[C@@H](CC1)O[C@]1(O[C@H](CC(C)O)[C@H](C)CC1=O)[C@@H]2C (stereo partly drawn)	3.6 µM (inactive)	4.13 µM (inactive)	3.3 µM (inactive)	5.57 µM (inactive)	3.18 µM (inactive)	3.14 µM (inactive)	3.3 µM (inactive)	< 0.0025 µM (active)	3.81 µM (inactive)	0.107 µM (active)	3.96 µM (inactive)	< 0.0025 µM (active)	< 0.0025 µM (active)	< 0.0025 µM (active)	2.92 µM (inactive)	0.598 µM (active)	3.72 µM (inactive)	3.99 µM (inactive)	2.92 µM (inactive)
C=C1C(=O)O[C@H]2[C@H](OC(C)=O)[C@@H](C)CCC/C(C)=C/CC[C@@]3(C)O[C@@H]3C[C@@H]12	1.87 µM (inactive)	1.86 µM (inactive)	2.32 µM (inactive)	2.58 µM (inactive)	15.6 µM (inactive)	4.23 µM (inactive)	8.26 µM (inactive)	3.19 µM (inactive)	6.44 µM (inactive)	0.398 µM (active)	2.19 µM (inactive)	0.885 µM (active)	1.4 µM (inactive)	6.34 µM (inactive)	2.94 µM (inactive)	1.59 µM (inactive)	4.08 µM (inactive)	1.86 µM (inactive)	4.97 µM (inactive)
Brc1ccc2[nH]cc(-c3nc(-c4c[nH]c5ccccc45)cs3)c2c1	5.48 µM (inactive)	3.44 µM (inactive)	3.45 µM (inactive)	3.16 µM (inactive)	4.58 µM (inactive)	1.74 µM (inactive)	1.95 µM (inactive)	1.22 µM (inactive)	2.09 µM (inactive)	3.37 µM (inactive)	2.74 µM (inactive)	4.27 µM (inactive)	3.18 µM (inactive)	3.01 µM (inactive)	1.85 µM (inactive)	2.79 µM (inactive)	2.37 µM (inactive)	1.93 µM (inactive)	3.42 µM (inactive)
O=c1c2sc(=S)n(-c3ccc(F)cc3)c2ncn1/N=C/c1ccc(F)cc1F	15.8 µM (inactive)	40.1 µM (inactive)	19 µM (inactive)	> 100 µM (inactive)	16.6 µM (inactive)	23.2 µM (inactive)	32.2 µM (inactive)	> 100 µM (inactive)	79.8 µM (inactive)	22.8 µM (inactive)	14.4 µM (inactive)	20.1 µM (inactive)	52.2 µM (inactive)	23.4 µM (inactive)	> 100 µM (inactive)	33 µM (inactive)	21.1 µM (inactive)	43.6 µM (inactive)	30.1 µM (inactive)
